pEC50: −log10 of the molar value. Numbered stars: 1 amine (or outer) side, 2 acyl side, 3 side chain; on linkers, the order of the positions; unused ones are H or OH. Square brackets hold non-standard residues; d marks the D form. Side chains are listed from the residue outwards. Peptide text beside a SMILES is read from it. * marks the point of attachment. γGlu = O=C(O)[C@H](CCC(=O)[*:2])N[*:1]; Palmitoyl = CCCCCCCCCCCCCCCC(=O)*; Orn = NCCC[C@H](N)C(=O)O; Aib = CC(C)(N)C(=O)O
Legend:
Format in all cases: cell-based
GLP-1 receptor = molecular target: T1, GLP-1 receptor (Homo sapiens, UniProt P43220); assay: cAMP induction, firefly luciferase reporter assay in HEK293 cells co-transfected with the GLP-1 receptor; details: HEK293 cells, cAMP-responsive luciferase reporter, 5 hours incubation
T1 construct: expressed in transfected cells; host or cells: HEK293
T1 sequence (P43220 24-463): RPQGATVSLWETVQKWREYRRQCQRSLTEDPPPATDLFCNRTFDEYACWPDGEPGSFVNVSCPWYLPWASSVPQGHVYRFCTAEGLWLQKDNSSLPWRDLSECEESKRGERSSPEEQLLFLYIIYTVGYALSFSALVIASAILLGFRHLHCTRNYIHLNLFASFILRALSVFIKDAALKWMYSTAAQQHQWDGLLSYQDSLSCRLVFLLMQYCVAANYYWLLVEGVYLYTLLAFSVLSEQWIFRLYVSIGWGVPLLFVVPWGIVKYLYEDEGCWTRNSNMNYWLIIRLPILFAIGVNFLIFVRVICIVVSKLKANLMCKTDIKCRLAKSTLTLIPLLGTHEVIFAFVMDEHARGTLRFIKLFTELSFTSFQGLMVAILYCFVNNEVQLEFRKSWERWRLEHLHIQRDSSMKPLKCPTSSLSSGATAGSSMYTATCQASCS
Description: (§1) The ability of each peptide to induce cAMP was measured in a firefly luciferase-based reporter assay. […] At the end of the incubation, 100 μL of LucLite luminescence substrate reagent (Perkin Elmer, Wellesley, Mass.) were added to each well. […] In some instances, the in vitro agonist activity at the GIP receptor was also tested.

GIP receptor = molecular target: T2, GIP receptor (Homo sapiens, UniProt P48546); assay: in vitro agonist activity at the GIP receptor (cAMP luciferase reporter, HEK293 cells); details: in vitro agonist activity; read-out: EC50 (nM) at GIP receptor
T2 construct: expressed in transfected cells; host or cells: HEK293
T2 sequence (P48546 22-466): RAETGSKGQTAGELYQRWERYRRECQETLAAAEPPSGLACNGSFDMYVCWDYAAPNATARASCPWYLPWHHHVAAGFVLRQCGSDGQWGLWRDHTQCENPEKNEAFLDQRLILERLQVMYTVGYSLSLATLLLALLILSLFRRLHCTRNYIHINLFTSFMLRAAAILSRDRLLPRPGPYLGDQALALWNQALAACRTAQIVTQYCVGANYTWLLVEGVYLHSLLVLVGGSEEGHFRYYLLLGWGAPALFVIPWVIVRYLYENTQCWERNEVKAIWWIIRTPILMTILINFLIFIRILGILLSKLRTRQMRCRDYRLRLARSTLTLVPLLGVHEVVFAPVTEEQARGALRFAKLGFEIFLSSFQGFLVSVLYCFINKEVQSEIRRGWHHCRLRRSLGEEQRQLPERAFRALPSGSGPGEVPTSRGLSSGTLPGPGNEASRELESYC
Description: as §1, with “It is understood that a lower EC50 indicates higher activity or potency at the receptor. […] The” for “The”

glucagon receptor = molecular target: T3, glucagon receptor (Homo sapiens, UniProt P47871); assay: cAMP induction, firefly luciferase reporter assay in HEK293 cells co-transfected with the glucagon receptor; details: HEK293 cells, cAMP-responsive luciferase reporter, 5 hours incubation
T3 construct: expressed in transfected cells; host or cells: HEK293
T3 sequence (P47871 26-477, species assumed): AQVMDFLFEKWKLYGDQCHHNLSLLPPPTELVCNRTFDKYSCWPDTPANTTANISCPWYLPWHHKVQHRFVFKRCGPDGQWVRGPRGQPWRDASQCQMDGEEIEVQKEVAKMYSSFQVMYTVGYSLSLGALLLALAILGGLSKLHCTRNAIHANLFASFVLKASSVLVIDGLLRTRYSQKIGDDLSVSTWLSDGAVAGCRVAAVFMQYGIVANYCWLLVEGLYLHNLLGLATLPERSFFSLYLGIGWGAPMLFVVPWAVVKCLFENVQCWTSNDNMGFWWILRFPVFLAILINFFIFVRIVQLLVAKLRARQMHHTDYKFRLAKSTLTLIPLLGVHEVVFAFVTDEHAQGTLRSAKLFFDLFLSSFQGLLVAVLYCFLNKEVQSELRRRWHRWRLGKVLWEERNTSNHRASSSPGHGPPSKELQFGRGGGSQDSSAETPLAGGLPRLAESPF
Description: as §1

| pEC50 (GLP-1 receptor) | EC50 (GIP receptor) | pEC50 (glucagon receptor) | Compound |
| --- | --- | --- | --- |
| 11.09 | 9.06 nM | 9.03 | CCCCCCCCCCCCCCCC(=O)N[C@@H](CCC(=O)NCCCC[C@H](NC(=O)[C@H](CC(=O)O)NC(=O)[C@H](CO)NC(=O)[C@@H](NC(=O)[C@H](Cc1ccccc1)NC(=O)[C@@H](NC(=O)CNC(=O)[C@H](CCC(N)=O)NC(=O)C(C)(C)NC(=O)[C@@H](N)Cc1c[nH]cn1)[C@@H](C)O)[C@@H](C)O)C(=O)N[C@@H](CO)C(=O)N[C@@H](CCCCN)C(=O)N[C@@H](Cc1ccc(O)cc1)C(=O)N[C@@H](CC(C)C)C(=O)N[C@@H](CC(=O)O)C(=O)NC(C)(C)C(=O)N[C@@H](CCCNC(=N)N)C(=O)N[C@@H](C)C(=O)N[C@@H](C)C(=O)N[C@@H](CCC(N)=O)C(=O)N[C@@H](CC(=O)O)C(=O)N[C@@H](Cc1ccccc1)C(=O)N[C@H](C(=O)N[C@@H](CCC(N)=O)C(=O)N[C@@H](Cc1c[nH]c2ccccc12)C(=O)N[C@@H](CC(C)C)C(=O)N[C@@H](CC(C)C)C(=O)N[C@@H](CC(=O)O)C(=O)NCC(=O)N[C@@H](CCCNC(=N)N)C(=O)NCC(N)=O)C(C)C)C(=O)O [compound 30] (H-H[Aib]QGTFTSDK([γGlu-Palmitoyl])SKYLD[Aib]RAAQDFVQWLLDGRG-NH2) |
| 11.15 | 2.34 nM | 10.80 | CCCCCCCCCCCCCCCC(=O)N[C@@H](CCC(=O)N[C@@H](CCC(=O)NCCCC[C@H](NC(=O)[C@H](CC(=O)O)NC(=O)[C@H](CO)NC(=O)[C@@H](NC(=O)[C@H](Cc1ccccc1)NC(=O)[C@@H](NC(=O)CNC(=O)[C@H](CCC(N)=O)NC(=O)C(C)(C)NC(=O)[C@@H](N)Cc1c[nH]cn1)[C@@H](C)O)[C@@H](C)O)C(=O)N[C@@H](CO)C(=O)N[C@@H](CCCCN)C(=O)N[C@@H](Cc1ccc(O)cc1)C(=O)N[C@@H](CC(C)C)C(=O)N[C@@H](CC(=O)O)C(=O)NC(C)(C)C(=O)N[C@@H](CCCNC(=N)N)C(=O)N[C@@H](C)C(=O)N[C@@H](C)C(=O)N[C@@H](CCC(N)=O)C(=O)N[C@@H](CC(=O)O)C(=O)N[C@@H](Cc1ccccc1)C(=O)N[C@H](C(=O)N[C@@H](CCC(N)=O)C(=O)N[C@@H](Cc1c[nH]c2ccccc12)C(=O)N[C@@H](CC(C)C)C(=O)N[C@@H](CCSC)C(=O)N[C@@H](CCCCN)C(=O)NCC(=O)N[C@@H](CCCNC(=N)N)C(=O)NCC(=O)O)C(C)C)C(=O)O)C(=O)O [compound 31] (H-H[Aib]QGTFTSDK([γGlu-γGlu-Palmitoyl])SKYLD[Aib]RAAQDFVQWLMKGRG-OH; N-terminus assumed) |
| 11.52 | 0.47 nM | 10.55 | CCCCCCCCCCCCCCCC(=O)N[C@@H](CCC(=O)NCCCC[C@H](NC(=O)[C@H](CC(=O)O)NC(=O)[C@H](CO)NC(=O)[C@@H](NC(=O)[C@H](Cc1ccccc1)NC(=O)[C@@H](NC(=O)CNC(=O)[C@H](CCC(N)=O)NC(=O)C(C)(C)NC(=O)[C@@H](N)Cc1c[nH]cn1)[C@@H](C)O)[C@@H](C)O)C(=O)N[C@@H](CO)C(=O)N[C@@H](CCCCN)C(=O)N[C@@H](Cc1ccc(O)cc1)C(=O)N[C@@H](CC(C)C)C(=O)N[C@@H](CC(=O)O)C(=O)NC(C)(C)C(=O)N[C@@H](CCCNC(=N)N)C(=O)N[C@@H](C)C(=O)N[C@@H](C)C(=O)N[C@@H](CCC(N)=O)C(=O)N[C@@H](CC(=O)O)C(=O)N[C@@H](Cc1ccccc1)C(=O)N[C@H](C(=O)N[C@@H](CCC(N)=O)C(=O)N[C@@H](Cc1c[nH]c2ccccc12)C(=O)N[C@@H](CC(C)C)C(=O)N[C@@H](CCCCN)C(=O)N[C@@H](CC(=O)O)C(=O)NCC(=O)N[C@@H](CCCNC(=N)N)C(=O)NCC(N)=O)C(C)C)C(=O)O [compound 36] (H-H[Aib]QGTFTSDK([γGlu-Palmitoyl])SKYLD[Aib]RAAQDFVQWLKDGRG-NH2) |

The next lines start with the compound.

| Compound | pEC50 (GLP-1 receptor) | EC50 (GIP receptor) | pEC50 (glucagon receptor) |
| --- | --- | --- | --- |
| CCCCCCCCCCCCCCCC(=O)N[C@@H](CCC(=O)N[C@@H](CCC(=O)NCCCC[C@H](NC(=O)[C@H](CC(=O)O)NC(=O)[C@H](CO)NC(=O)[C@@H](NC(=O)[C@H](Cc1ccccc1)NC(=O)[C@@H](NC(=O)CNC(=O)[C@H](CCC(N)=O)NC(=O)C(C)(C)NC(=O)[C@@H](N)Cc1c[nH]cn1)[C@@H](C)O)[C@@H](C)O)C(=O)N[C@@H](CO)C(=O)N[C@@H](CCCCN)C(=O)N[C@@H](Cc1ccc(O)cc1)C(=O)N[C@@H](CC(C)C)C(=O)N[C@@H](CC(=O)O)C(=O)NC(C)(C)C(=O)N[C@@H](CCCNC(=N)N)C(=O)N[C@@H](C)C(=O)N[C@@H](C)C(=O)N[C@@H](CCC(N)=O)C(=O)N[C@@H](CC(=O)O)C(=O)N[C@@H](Cc1ccccc1)C(=O)N[C@H](C(=O)N[C@@H](CCC(N)=O)C(=O)N[C@@H](Cc1c[nH]c2ccccc12)C(=O)N[C@@H](CC(C)C)C(=O)N[C@@H](CC(C)C)C(=O)NC(C)(C)C(=O)NCC(=O)N[C@@H](CCCNC(=N)N)C(=O)NCC(N)=O)C(C)C)C(=O)O)C(=O)O [compound 29] (H-H[Aib]QGTFTSDK([γGlu-γGlu-Palmitoyl])SKYLD[Aib]RAAQDFVQWLL[Aib]GRG-NH2) | 11.15 | 1.65 nM | 10.85 |
| CCCCCCCCCCCCCCCC(=O)N[C@@H](CCC(=O)N[C@@H](CCC(=O)NCCCC[C@H](NC(=O)[C@H](CC(=O)O)NC(=O)[C@H](CO)NC(=O)[C@@H](NC(=O)[C@H](Cc1ccccc1)NC(=O)[C@@H](NC(=O)CNC(=O)[C@H](CCC(N)=O)NC(=O)C(C)(C)NC(=O)[C@@H](N)Cc1c[nH]cn1)[C@@H](C)O)[C@@H](C)O)C(=O)N[C@@H](CO)C(=O)N[C@@H](CCCCN)C(=O)N[C@@H](Cc1ccc(O)cc1)C(=O)N[C@@H](CC(C)C)C(=O)N[C@@H](CC(=O)O)C(=O)NC(C)(C)C(=O)N[C@@H](CCCNC(=N)N)C(=O)N[C@@H](C)C(=O)N[C@@H](C)C(=O)N[C@@H](CCC(N)=O)C(=O)N[C@@H](CC(=O)O)C(=O)N[C@@H](Cc1ccccc1)C(=O)N[C@H](C(=O)N[C@@H](CCC(N)=O)C(=O)N[C@@H](Cc1c[nH]c2ccccc12)C(=O)N[C@@H](CC(C)C)C(=O)N[C@@H](CCSC)C(=O)N[C@@H](CC(=O)O)C(=O)N[C@H](C(=O)N[C@@H](CCCCN)C(=O)N[C@H](C)C(=O)O)[C@@H](C)O)C(C)C)C(=O)O)C(=O)O [compound 32] (H-H[Aib]QGTFTSDK([γGlu-γGlu-Palmitoyl])SKYLD[Aib]RAAQDFVQWLMDTK[dA]-OH) | 11.10 | 2.08 nM | 11.15 |
| CCCCCCCCCCCCCCCC(=O)N[C@@H](CCC(=O)N[C@@H](CCC(=O)NCCCC[C@H](NC(=O)[C@H](CC(=O)O)NC(=O)[C@H](CO)NC(=O)[C@@H](NC(=O)[C@H](Cc1ccccc1)NC(=O)[C@@H](NC(=O)CNC(=O)[C@H](CCC(N)=O)NC(=O)C(C)(C)NC(=O)[C@@H](N)Cc1c[nH]cn1)[C@@H](C)O)[C@@H](C)O)C(=O)N[C@@H](CO)C(=O)N[C@@H](CCCCN)C(=O)N[C@@H](Cc1ccc(O)cc1)C(=O)N[C@@H](CC(C)C)C(=O)N[C@@H](CC(=O)O)C(=O)NC(C)(C)C(=O)N[C@@H](CCCNC(=N)N)C(=O)N[C@@H](C)C(=O)N[C@@H](C)C(=O)N[C@@H](CCC(N)=O)C(=O)N[C@@H](CC(=O)O)C(=O)N[C@@H](Cc1ccccc1)C(=O)N[C@H](C(=O)N[C@@H](CCC(N)=O)C(=O)N[C@@H](Cc1c[nH]c2ccccc12)C(=O)N[C@@H](CC(C)C)C(=O)N[C@@H](CCSC)C(=O)N[C@@H](CCCN)C(=O)N[C@H](C(=O)N[C@@H](CCCN)C(=O)N[C@@H](CCC(=O)O)C(=O)O)[C@@H](C)O)C(C)C)C(=O)O)C(=O)O [compound 33] (H-H[Aib]QGTFTSDK([γGlu-γGlu-Palmitoyl])SKYLD[Aib]RAAQDFVQWLM[Orn]T[Orn]E-OH; N-terminus assumed) | 10.72 | 3.96 nM | 10.64 |
| CCCCCCCCCCCCCCCC(=O)N[C@@H](CCC(=O)N[C@@H](CCC(=O)NCCCC[C@H](NC(=O)[C@H](CC(=O)O)NC(=O)[C@H](CO)NC(=O)[C@@H](NC(=O)[C@H](Cc1ccccc1)NC(=O)[C@@H](NC(=O)CNC(=O)[C@H](CCC(N)=O)NC(=O)C(C)(C)NC(=O)[C@@H](N)Cc1c[nH]cn1)[C@@H](C)O)[C@@H](C)O)C(=O)N[C@@H](CO)C(=O)N[C@@H](CCCCN)C(=O)N[C@@H](Cc1ccc(O)cc1)C(=O)N[C@@H](CC(C)C)C(=O)N[C@@H](CC(=O)O)C(=O)NC(C)(C)C(=O)N[C@@H](CCCNC(=N)N)C(=O)N[C@@H](C)C(=O)N[C@@H](C)C(=O)N[C@@H](CCC(N)=O)C(=O)N[C@@H](CC(=O)O)C(=O)N[C@@H](Cc1ccccc1)C(=O)N[C@H](C(=O)N[C@@H](CCC(N)=O)C(=O)N[C@@H](Cc1c[nH]c2ccccc12)C(=O)N[C@@H](CC(C)C)C(=O)N[C@@H](CCSC)C(=O)N[C@@H](CCCCN)C(=O)N[C@H](C(=O)N[C@@H](CCCCN)C(=O)N[C@H](CCC(=O)O)C(=O)O)[C@@H](C)O)C(C)C)C(=O)O)C(=O)O [compound 37] (H-H[Aib]QGTFTSDK([γGlu-γGlu-Palmitoyl])SKYLD[Aib]RAAQDFVQWLMKTK[dE]-OH; N-terminus assumed) | 10.80 | 3.3 nM | 10.74 |

— patent US8729017B2 (priority 2011, dated 2014)
